{"source": "patent US20100273656A1", "about": "“COMPOSITION AND METHOD FOR SELECTIVE HERBICIDE” (priority 2002, published 2010)", "key": {"[1]": {"tested_on": "dandelion (Taraxacum officinale)", "assay": "Example 11 field test, dandelion in lawn", "type": "in vivo", "protocol": "(§1) Killex® (Green Cross, Ontario, Canada) is a commonly used selective lawn herbicide and was included in several field tests as a standard. Killex contains 2,4-D (9.5%), mecoprop (5%) and dicamba (0.9%). The product was diluted 6 ml into 1 L of water solution and applied at rate of 200 ml/m^2, as per label instructions.\nThis test investigated the effect of FeHEDTA and a mixture of FeEDDS and FeMGDA on daisy (Bellis perennis), dandelion (Taraxacum officinale) and a turf bentgrass (Agrostis sp.). The chelating agents were used at one and a half times the molar amount of iron. The FeHEDTA solutions contained 0.2% iron (35.8 mM). The commercially prepared FeHEDTA product from the Monterey Chemical Company (CA, USA) was used as a standard. The (FeEDDS+FeMGDA) solutions contained 0.4% iron (71.6 mM) and the same molar amount of EDDS and MGDA. The solutions were made from NaEDDS (Octaquest E30, Octel) and NaMGDA (Trilon M liquid, BASF, Germany). Ammonium sulfate was added at a concentration of 1%. Killex (Solaris ON, Canada) was diluted and applied as per label instructions of 6 ml/L applied at 200 ml/m^2.\nThe daisy (0.25 m^2) and dandelion (0.5 m^2) test plots were in different areas of the bentgrass field. The dandelions were large, averaging 30 cm in diameter. The daisy patches were between 10 and 20 cm in diameter. The plants were sprayed weekly 4 times."}, "dandelions": {"tested_on": "dandelions", "assay": "Example 6 various Fe chelates, dandelion phytotoxicity", "type": "in vivo, Taraxacum officinale", "protocol": "(§2) The following non-limiting examples serve to further describe the invention. Unless otherwise specified, all of the iron solutions were made using the same molar concentration of iron ion as chelating agent. All of the outside tests were done on areas of mixed grass and dandelions that were at least 2 months old. For the greenhouse tests, dandelions were grown in a commercial greenhouse mix, using supplemental lighting and heating. Each plant was grown in a 2¼ inch pot to a minimum diameter of 20 cm. All of the solutions were sprayed onto the plants at a rate of 100 ml/m^2. The ferrous sulfate formulations that were used in examples 1, 2, 8 and 9 contained 1% iron (180 mM), 18 mM EDTA, 1% citric acid and 0.5% urea. In all of the examples, the amount of iron is identified in brackets as the percent iron on a weight basis.\n(§3) All plant damage was assessed using a qualitative rating scale from 0 to 9.\nThis test compared EDG (ethanol diglycine) and EDDS at 0.4% Fe+3 (71.6 mM), with HEDTA 0.2% Fe+3 (35.8 mM). FeEDDS and FeEDG were made with 100% excess chelating agent. FeHEDTA was made with 10% excess chelating agent. The solutions were sprayed onto greenhouse grown dandelions. The plants were resprayed after 7 days."}, "grass": {"tested_on": "grass", "assay": "Example 1 field test of iron chelates, grass damage", "type": "in vivo", "conditions": "in vivo", "protocol": "as §2, §3\nAll of the iron chelates were sprayed once at 0.2% Fe^+3 (35.8 mM), at a volume of 100 ml/m^2 onto 0.5 m^2 areas of mixed grass and dandelions. The spraying of the test was followed by 2 days of rain-free weather. Observations were made 5 days after spraying."}, "white clover": {"tested_on": "white clover", "assay": "Example 17 iron chelates with Killex, white clover", "type": "in vivo", "protocol": "Plants were fertilized with an all purpose water-soluble fertilizer mix of 20-20-20 (N-P-K; Plant-Prod®) as needed. All broadleaf weeds were grown individually in a 2¼-inch pot until they were a suitable size for herbicide tests (actual weed size is reported in examples below). Perennial ryegrass was also grown in 2¼-inch pots, however many grass seeds were sown in the pot to simulate a small section of turf. Grass plants were continually trimmed to a height of 4 cm, simulating that of a homeowner's lawn. For field tests, plots ¼ m^2 in size were marked out in areas containing the targeted broadleaf weed species growing in turf grass. Plots were continually mowed to simulate a homeowner's lawn. […] In all of the examples, the amounts of the various herbicide components are identified as a percent on a weight basis.\nKillex® (Scotts Canada, Ltd., Ontario, Canada) is a commonly used selective lawn herbicide and was used as the commercial herbicide for herbicide combinations. The labeled dilution and application rates for Killex® are 6 ml into 1 L of solution (0.6%) applied at 200 ml/m^2.\nAll visual plant damage assessments were made using a quantitative rating scale; percent control relative to the untreated check (0=no effect; 100=plant death).\nMaterials and Methods: This trial was conducted in the greenhouse. Nine pots of white clover and 10 pots of perennial ryegrass were selected for each treatment. Herbicidal solutions were prepared using deionized water. The treatments were applied using a handheld trigger sprayer at 200 ml/m^2. All treatments were applied once. Phytotoxicity (%) was assessed 4, 7, and 14 days after application (A4, A7, and A14)."}, "[2]": {"tested_on": "hairy cat's ear (Hypochoeris radicata)", "assay": "Example 13 field test, hairy cat's ear", "type": "in vivo", "protocol": "as §1\nThis test evaluated FeEDDS (0.4% Fe^+3) and FeHEDTA (0.2% Fe^+3) for controlling the weed hairy cat's ear (Hypochoeris radicata), also known as “false dandelion”, grown in areas of mixed grass and Hypochoeris. The iron solutions were sprayed at a rate of 100 ml/m^2 to 1.0 m^2 plots. The iron treatments were resprayed after 7 and 14 days. Killex (Solaris ON, Canada) was diluted and applied once as per label instructions of 6 ml /L applied at 200 ml/m^2."}}, "data": [{"compound": "O=C([O-])CN(CCO)CCN(CC(=O)[O-])CC(=O)[O-].[Fe+3]", "note": "[FeHEDTA]", "values": [{"measurement": "Plot Area Covered by Dandelion Plants (%)", "setting": "[1]; day 0 (start of test)", "result": 80, "unit": "%"}, {"measurement": "Dandelion Necrosis (%)", "setting": "[1]; day 2", "result": 95, "unit": "%"}, {"measurement": "Dandelion Necrosis (%)", "setting": "[1]; day 9", "result": 98, "unit": "%"}, {"measurement": "Plot Area Covered by Dandelion Plants (%)", "setting": "[1]; day 13, sprayed weekly 4 times", "result": 5, "unit": "%"}, {"measurement": "Dandelion Necrosis (%)", "setting": "[1]; day 16", "result": 97, "unit": "%"}, {"measurement": "Plot Area Covered by Dandelion Plants (%)", "setting": "[1]; day 21", "result": 10, "unit": "%"}, {"measurement": "Dandelion Necrosis (%)", "setting": "[1]; day 23", "result": 97, "unit": "%"}, {"measurement": "Plot Area Covered by Dandelion Plants (%)", "setting": "[1]; day 26", "result": 8, "unit": "%"}, {"measurement": "Dead Plants (#/10)", "setting": "dandelions; 7 + 5 days after spraying", "result": "3 #/10"}, {"measurement": "Plant Damage (0 to 9)", "setting": "dandelions; 7 + 5 days after spraying (resprayed after 7 days)", "result": "8.1 0 to 9"}, {"measurement": "Plant Damage (0 to 9)", "setting": "dandelions; 7 days after spraying", "result": "1.3 0 to 9"}, {"measurement": "Grass Damage (0 to 9)", "setting": "grass", "result": 0}, {"measurement": "Phytotoxicity (%) against white clover", "setting": "white clover; A4 = 4 days after application, 0=no effect, 100=plant death", "result": 22, "unit": "%"}, {"measurement": "Phytotoxicity (%) against white clover", "setting": "white clover; A7 = 7 days after application", "result": 19, "unit": "%"}, {"measurement": "Phytotoxicity (%) against white clover", "setting": "white clover; A14 = 14 days after application", "result": 15, "unit": "%"}, {"measurement": "Area Covered by Hairy Cat's Ear (%)", "setting": "[2]; day 0", "result": 65, "unit": "%"}, {"measurement": "Relative Cat's Ear Area (Start = 100%)", "setting": "[2]; day 0", "result": 100, "unit": "%"}, {"measurement": "Area Covered by Hairy Cat's Ear (%)", "setting": "[2]; day 6", "result": 20, "unit": "%"}, {"measurement": "Relative Cat's Ear Area (Start = 100%)", "setting": "[2]; day 6", "result": 31, "unit": "%"}, {"measurement": "Area Covered by Hairy Cat's Ear (%)", "setting": "[2]; day 8", "result": 20, "unit": "%"}, {"measurement": "Relative Cat's Ear Area (Start = 100%)", "setting": "[2]; day 8", "result": 31, "unit": "%"}, {"measurement": "Area Covered by Hairy Cat's Ear (%)", "setting": "[2]; day 14", "result": 5, "unit": "%"}, {"measurement": "Relative Cat's Ear Area (Start = 100%)", "setting": "[2]; day 15", "result": 8, "unit": "%"}, {"measurement": "Area Covered by Hairy Cat's Ear (%)", "setting": "[2]; day 18", "result": 0, "unit": "%"}, {"measurement": "Relative Cat's Ear Area (Start = 100%)", "setting": "[2]; day 18", "result": 0, "unit": "%"}]}]}
